Earlier results, collected in patent publication US20230310544A1, “ANTI-RNA VIRAL PHARMACEUTICAL COMBINATION THERAPY WITH APROTININ + anti-RNA DRUG” (ASAVI LLC, priority 2022, published 2023).

Assays:
SARS-CoV-2 = details: human, in vivo
COVID-19 = COVID-19 patients

Structure (SMILES): NC(=O)c1nc(F)c[nH]c1=O [FVP, favipiravir]
- Median time to elimination of SARS-CoV-2 confirmed by RT-PCR, days (IQR) (SARS-CoV-2): 4.5 days
- Median time to improvement in clinical status by 2 points on the WHO-OSCI, days (IQR) (SARS-CoV-2): 14.0 days
- Median time to normalization of body temperature (<37° C.), days (IQR) (SARS-CoV-2): 2.0 days
- time to clinical improvement (COVID-19): ≤ 14 days
- time to viral clearance (COVID-19): ≤ 7 days
